Here are results for six compounds from PMC4048129 (Chemistry and physics of lipids, 2013).

Values after ≈ are worked out from the molar mass of the structure shown.

For one data set, the system named is S. aureus (ATCC 29213). Briefly: Microdilution susceptibility testing. The settings on record: for IC50: ATCC29213, read-out: IC50 ± SEM.
The test system of data set [1] is S. saprophyticus (ATCC 15305). Briefly: Microdilution susceptibility testing. The settings on record: for MIC: 18-24 h; for IC50: ATCC15305, read-out: IC50 ± SEM.
A further data set has as its system B. cereus (ATCC 10876). Briefly: Microdilution susceptibility testing. The settings on record: for IC50: ATCC10876, read-out: IC50 ± SEM. A general note: Broth dilution looks for growth in wells or tubes with falling amounts of substance.
The next data set has as its system E. coli (ATCC 25922). Briefly: Microdilution susceptibility testing.
Data set [2] deals with K. pneumoniae (ATCC 13883). Briefly: Microdilution susceptibility testing. The settings on record: for IC50: ATCC13883, read-out: IC50 ± SEM.
In data set [3] the test system is P. aeruginosa (ATCC 27853). Briefly: Microdilution susceptibility testing.
In data set [4] the test system is Gram-positive and Gram-negative bacteria. Briefly: Antibacterial activity against the bacteria of Table 1. To be noted: all bacteria presented in Table 1, result in words.
The test system of data set [5] is CIMRSA 1. Briefly: Determination of bactericidal concentration. It counts as cell-based, Clinical isolate of methicillin-resistant S. aureus. To be noted: CIMRSA 1 and 2 (both strains, text summary).
Data set [6] is described as follows: Cytotoxicity testing, MTT assay. The data set is classed as cell-based. To be noted: human.
The subject of data set [7] is Leishmania donovani amastigotes. The settings on record: L. donovani; ref Carballeira et al., 2012; cited from earlier work.
For data set [8], the target named is L. donovani DNA topoisomerase IB enzyme (LdTopIB). To be noted: ref Carballeira et al., 2012; cited from earlier work.
The subject of another data set is MRSA ATCC 43300. Briefly: Microdilution susceptibility testing. The settings on record: Staphylococcus aureus, ATCC43300|MRSA; for IC50: read-out: IC50 ± SEM.
The test system of data set [9] is CIMRSA 1. Briefly: Microdilution susceptibility testing. To be noted: Staphylococcus aureus; for IC50: read-out: IC50 ± SEM.
The subject of a further data set is CIMRSA 2. Briefly: Microdilution susceptibility testing. The settings on record: Staphylococcus aureus; for IC50: read-out: IC50 ± SEM.
The mark [10] stands for this setting: Staphylococcus aureus, ATCC29213.
The mark [11] stands for this setting: Staphylococcus saprophyticus, ATCC15305, S. saprophyticus ATCC 15305, 37°C.
Setting [12] is: Klebsiella pneumoniae, ATCC13883.
Setting [13] is: Pseudomonas aeruginosa, ATCC27853.

In general, MIC refers to the lowest concentration found to suppress growth. Lower therefore signals greater potency. Turning to `CCCCCCCCCCCCCC#CCOC1CCCCO1` (stereo not shown) [Compound 2-HDOTHP, 2-(2-Hexadecynyloxy)-tetrahydro-2H-pyran], the MIC in the data set with S. aureus (ATCC 29213) (setting [10]) is more than 1000 µg/mL; in data set [1] (setting [11]) it was more than 1000 µg/mL; in the data set with B. cereus (ATCC 10876) (Bacillus cereus, ATCC10876), more than 1000 µg/mL; in the data set on E. coli (ATCC 25922) (Escherichia coli, ATCC25922), more than 1000 µg/mL; in data set [2] (setting [12]) it was more than 1000 µg/mL; in [3] (setting [13]), more than 1000 µg/mL. In addition, the antibacterial activity result in data set [4] was “inactive”.
Regarding `CCCCCCCCCCCCCCCCCC#CC(=O)O` [Compound 2-ICA, 2-icosanoic acid], the MIC was >1,000 μg/mL in the data set on S. aureus (ATCC 29213) (S. aureus ATCC 29213, 37°C, 18-24 h); >1,000 μg/mL in data set [1] (S. saprophyticus ATCC 15305, 37°C); >1,000 μg/mL against B. cereus (ATCC 10876) (B. cereus ATCC 10876, 37°C, 18-24 h); >1,000 μg/mL with E. coli (ATCC 25922) (E. coli ATCC 25922, 37°C, 18-24 h); >1,000 μg/mL in [2] (K. pneumoniae ATCC 13883, 37°C, 18-24 h); >1,000 μg/mL in [3] (P. aeruginosa ATCC 27853, 37°C, 18-24 h). Further, the antibacterial activity result in [4] is on record as “did not show antibacterial activity”.
The term IC50 denotes the point on the concentration scale where inhibition reaches its midpoint. Regarding `CCCCCCCCCCCCCCCC#CC(=O)O` [Compound 2-ODA, 2-Octadecynoic acid], in the data set on CIMRSA 1 [5], the bactericidal concentration stood at 15.6 µg/mL. This compound also came in with an IC50 at 3 days in [6] (peripheral blood mononuclear cells (PBMC)) of 58.9 ± 0.1 µg/mL (≈ 210 µM). Besides, the IC50 in data set [7] was 11 µM; in [8], 5.3 µM; in the data set with S. aureus (ATCC 29213) (Staphylococcus aureus), 8.1 µg/mL (≈ 28.9 µM); in data set [1] (Staphylococcus saprophyticus), 68.8 µg/mL (≈ 245 µM); in the data set with B. cereus (ATCC 10876) (Bacillus cereus), 11.9 µg/mL (≈ 42.4 µM); in data set [2] (Klebsiella pneumoniae), 5.6 µg/mL (≈ 20 µM). The IC50 with MRSA ATCC 43300 stood at 5.5 µg/mL (≈ 19.6 µM); with CIMRSA 1 [9], 4.3 µg/mL (≈ 15.3 µM); in the data set with CIMRSA 2 it was 5.5 µg/mL (≈ 19.6 µM). The MIC against S. aureus (ATCC 29213) (setting [10]) was 15.6 µg/mL (≈ 55.6 µM); in data set [1] (setting [11]) it was 125 µg/mL (≈ 446 µM); against B. cereus (ATCC 10876) (Bacillus cereus, ATCC10876), 15.6 µg/mL (≈ 55.6 µM); in the data set with E. coli (ATCC 25922) (Escherichia coli, ATCC25922) it was more than 1000 µg/mL; in data set [2] (setting [12]), 7.8 µg/mL (≈ 27.8 µM); in data set [3] (setting [13]), more than 1000 µg/mL. The MIC in the data set on MRSA ATCC 43300, against CIMRSA 1 [9] and against CIMRSA 2 was 7.8 µg/mL (≈ 27.8 µM) in each case.
Consider `CCCCCCCCCCCCCCCC#CCO` [Compound 2-ODOH, 2-Octadecyn-1-ol], for which the MIC against S. aureus (ATCC 29213) (setting [10]) is more than 1000 µg/mL; in data set [1] (setting [11]), more than 1000 µg/mL; in the data set with B. cereus (ATCC 10876) (Bacillus cereus, ATCC10876), more than 1000 µg/mL; against E. coli (ATCC 25922) (Escherichia coli, ATCC25922), more than 1000 µg/mL; in data set [2] (setting [12]), more than 1000 µg/mL; in data set [3] (setting [13]), more than 1000 µg/mL.
As to `CCCCCCCCCCCCCCCC#CCOC1CCCCO1` (stereo not shown) [Compound 2-ODOTHP, 2-(2-Octadecynyloxy)-tetrahydro-2H-pyran], the minimal inhibitory concentration (MIC) in the data set with S. aureus (ATCC 29213) (setting [10]) is more than 1000 µg/mL; in data set [1] (setting [11]), more than 1000 µg/mL; in the data set with B. cereus (ATCC 10876) (Bacillus cereus, ATCC10876), more than 1000 µg/mL; against E. coli (ATCC 25922) (Escherichia coli, ATCC25922) it was more than 1000 µg/mL; in data set [2] (setting [12]), more than 1000 µg/mL; in [3] (setting [13]) it was more than 1000 µg/mL. The antibacterial activity entry in data set [4] was “inactive”.
`COc1cccc(OC)c1C(=O)N[C@@H]1C(=O)N2[C@@H]1SC(C)(C)[C@@H]2C(=O)O` [Methicillin, reference compound] returned an IC50 at 3 days in data set [6] of 86.1 ± 0.5 µg/mL (≈ 226 µM). Moreover, the MIC was 0.06 µg/mL (≈ 0.158 µM) in the data set on S. aureus (ATCC 29213) (setting [10]); 0.12 µg/mL (≈ 0.315 µM) in data set [1] (setting [11]); 62.5 µg/mL (≈ 164 µM) against B. cereus (ATCC 10876) (Bacillus cereus, ATCC10876); more than 1000 µg/mL in the data set with E. coli (ATCC 25922) (Escherichia coli, ATCC25922); 0.98 µg/mL (≈ 2.58 µM) in data set [2] (setting [12]); more than 1000 µg/mL in [3] (setting [13]). The MIC against MRSA ATCC 43300 came to 1.95 µg/mL (≈ 5.13 µM); in the data set with CIMRSA 1 [9] it was 7.8 µg/mL (≈ 20.5 µM); against CIMRSA 2, 31.3 µg/mL (≈ 82.3 µM). Further, the concentration for half-maximal inhibition (IC50) is 0.03 µg/mL (≈ 0.0789 µM) in the data set on S. aureus (ATCC 29213) (Staphylococcus aureus); 0.06 µg/mL (≈ 0.158 µM) in data set [1] (Staphylococcus saprophyticus); 38.2 µg/mL (≈ 100 µM) in the data set with B. cereus (ATCC 10876) (Bacillus cereus); 0.36 µg/mL (≈ 0.946 µM) in [2] (Klebsiella pneumoniae); 0.98 µg/mL (≈ 2.58 µM) in the data set on MRSA ATCC 43300; 2.2 µg/mL (≈ 5.78 µM) with CIMRSA 1 [9]. Also, the IC50 in the data set with CIMRSA 2 amounted to 11.8 µg/mL (≈ 31 µM).
